From patent publication US10654834B2 (Venenum Biodesign, LLC, priority 2016, dated 2020)

Key:
[1] = biological target: T1, mouse TGR5 receptor (Mus musculus, UniProt Q80SS6); test: Mouse TGR5 luminescent cAMP production assay (HEK293-EBNA cells, DiscoveRx cAMP XS+ kit); assay type: cell-based; conditions: HEK293-EBNA cells overexpressing mouse TGR5, luminescent cAMP assay; read-out: Mouse TGR5 Lum. cAMP Activity (EC50)
T1 construct: host or cells: HEK293-EBNA (293 c18, ATCC CRL10852)
T1 sequence (Q80SS6 1-329): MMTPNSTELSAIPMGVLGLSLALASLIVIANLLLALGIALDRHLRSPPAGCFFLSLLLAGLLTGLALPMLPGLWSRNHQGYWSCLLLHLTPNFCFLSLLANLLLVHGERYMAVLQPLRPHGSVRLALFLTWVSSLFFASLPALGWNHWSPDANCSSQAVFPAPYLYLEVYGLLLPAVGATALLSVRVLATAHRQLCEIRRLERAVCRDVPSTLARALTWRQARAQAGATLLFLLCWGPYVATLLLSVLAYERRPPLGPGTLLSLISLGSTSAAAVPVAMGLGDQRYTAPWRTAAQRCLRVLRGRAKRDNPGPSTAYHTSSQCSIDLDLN
Description: Mouse TGR5 cAMP Production Assay
Compounds of the present invention were evaluated for their ability to induce cAMP production in HEK-EBNA cells overexpressing the mouse TGR5 receptor. Human embryonic kidney cells (HEK293-EBNA) stably expressing mouse TGR5 receptor were established using the following procedure. Specifically, a commercially obtained gene encoding mouse TGR5 (accession number BC116914) from Thermo Scientific (Waltham, Mass.) was cloned into an episomal expression vector. The resulting expression plasmid was then transfected into 293 c18 (ATCC® CRL10852™) cells, which express the Epstein-Barr virus nuclear antigen EBNA1 and can support the replication of episomal vectors. Selection for the plasmid was maintained with Hygromycin B. Cells were cultured and maintained in DMEM (Sigma; cat #6429) supplemented with 10% Fetal Bovine Serum, 1% penicillin/streptomycin, 2 mM L-alanine L-glutamine (GlutaMax), and 250 μg/mL Hygromycin.
We developed two cAMP production assays.
(i) Luminescent cAMP Production Assay
In this first cAMP production assay, the cAMP production was measured using DiscoveRx's cAMP XS+ kit following the manufacturer's recommended protocol. Briefly, HEK293-EBNA cells stably overexpressing mouse TGR5 were harvested using non-enzymatic cell dissociation buffer (Sigma-Aldrich, St. Louis, Mo.), spun down, then resuspended in serum-free DMEM with 500 μM IBMX at a density of 1.25×10^6 cells/mL. 500 μL of cAMP antibody solution was added to 500 μL of cell suspension and incubated at room temperature for 20 min.
Test compounds were serially diluted (half-log dilutions) in DMSO and then further diluted 1:50 in PBS, 10 mM HEPES buffer. 2 μL of serially diluted compound was added to a 384-well low volume plate (Greiner cat #784075) and centrifuged briefly. 2 μl of the cell/cAMP antibody mixture was then added to each compound-containing well and allowed to incubate at room temperature for one (1) hour. Following incubation, the XS+ kits' ED/Lysis/CL Substrate Working Solution was prepared following the manufacturer's recommended protocol and 4 μL was added to each well of the plate. The plate was then incubated for one (1) hour at room temperature. Following incubation, 4 μL of (Enzyme Acceptor) EA reagent was added to the plate and allowed to incubate overnight at room temperature. Luminescent signal was then detected using the Viewlux instrument (PerkinElmer, Waltham, Mass.).
In Table 52, EC50 values for both human and mouse cells were determined according to the TGR5 cAMP assays described above. […]

[2] = biological target: T2, human TGR5 receptor (Homo sapiens, UniProt Q8TDU6); test: Human TGR5 cAMP production assay (hTGR5-CHO cells, DiscoveRx cAMP XS+ kit); assay type: cell-based; conditions: luminescent cAMP assay, read-out: Human TGR5 Lum. cAMP Activity (EC50)
T2 construct: host or cells: CHO-K1 (hTGR5-CHO)
T2 sequence (Q8TDU6 1-330): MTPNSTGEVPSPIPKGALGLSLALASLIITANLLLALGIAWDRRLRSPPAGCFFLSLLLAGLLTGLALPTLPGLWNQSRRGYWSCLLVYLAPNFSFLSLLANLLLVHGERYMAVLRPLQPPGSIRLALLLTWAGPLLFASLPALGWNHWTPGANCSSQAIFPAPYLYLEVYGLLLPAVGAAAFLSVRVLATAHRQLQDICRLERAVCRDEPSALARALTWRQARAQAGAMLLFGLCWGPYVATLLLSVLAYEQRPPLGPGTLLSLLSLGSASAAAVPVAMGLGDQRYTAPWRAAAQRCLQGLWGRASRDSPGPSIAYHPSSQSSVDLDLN
Summary of the method: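 CHO-K1 cells stably expressing hTGR5, in PBS with IBMX and cAMP antibody, treated with half-log compound dilutions for 1 h at room temperature. cAMP measured by enzyme-fragment complementation luminescence after overnight detection; EC50 values reported.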

| SMILES | EC50 [1] [nM] | EC50 [2] [nM] |
| --- | --- | --- |
| CC(=O)NCC1CCN(c2cc(N3CCC[C@H]3C(=O)NCCc3ccc(C#N)cc3)nc(C(F)(F)F)n2)CC1 [Compound 52, (S)-1-(6-(4-(acetamidomethyl)piperidin-1-yl)-2-(trifluoromethyl)pyrimidin-4-yl)-N-(4-cyanophenethyl)pyrrolidine-2-carboxamide] | < 100 | 100 to 999 |
| CNCC1CCN(c2cc(N3CCC[C@H]3C(=O)NCCc3ccc(C#N)cc3)nc(C(F)(F)F)n2)CC1 [Compound 49] | 100 to 999 | 100 to 999 |
| N#Cc1ccc(CCNC(=O)[C@@H]2CCCN2c2cc(-c3ccc(S(=O)(=O)N4CCOCC4)cc3)nc(C(F)(F)F)n2)cc1 [Compound 154, (S)-N-(4-cyanophenethyl)-1-(6-(4-(morpholinosulfonyl)phenyl)-2-(trifluoromethyl)pyrimidin-4-yl)pyrrolidine-2-carboxamide] | 100 to 999 | 1000 to 30000 |
| CC(=O)N1CCC(Nc2cc(N3CCC[C@H]3C(=O)NCCc3ccc(C#N)cc3)nc(C(F)(F)F)n2)CC1 [Compound 53, (S)-1-(6-((1-acetylpiperidin-4-yl)amino)-2-(trifluoromethyl)pyrimidin-4-yl)-N-(4-cyanophenethyl)pyrrolidine-2-carboxamide] | < 100 | 1000 to 30000 |
| O=C(NCCc1ccc(C(F)(F)F)cc1)[C@@H]1CCCN(c2cc(OC3CCOCC3)nc(C(F)(F)F)n2)C1 [Compound 335, (R)-1-(6-((tetrahydro-2H-pyran-4-yl)oxy)-2-(trifluoromethyl)pyrimidin-4-yl)-N-(4-(trifluoromethyl)-phenethyl)piperidine-3-carboxamide] | 100 to 999 | 100 to 999 |
| N#Cc1ccc(CCNC(=O)[C@@H]2CCCN2c2cc(-c3ccsc3)nc(C(F)(F)F)n2)cc1 [Compound 158, (S)-N-(4-cyanophenethyl)-1-(6-(thiophen-3-yl)-2-(trifluoromethyl)pyrimidin-4-yl)pyrrolidine-2-carboxamide] | < 100 | 100 to 999 |
| N#Cc1ccc(CCNC(=O)C2CCN2c2cc(OC3CCOCC3)nc(C(F)(F)F)n2)cc1 (centres unmarked) [Compound 244, N-(4-cyanophenethyl)-1-(6-((tetra-hydro-2H-pyran-4-yl)oxy)-2-(trifluoromethyl)pyrimidin-4-yl)azetidine-2-carboxamide] | < 100 | 100 to 999 |
| N#Cc1ccc(CCNC(=O)[C@@H]2CCCN2c2cc(-c3ccccc3)nc(C(F)(F)F)n2)cc1 [Compound 144, (S)-N-(4-cyanophenethyl)-1-(6-phenyl-2-(trifluoromethyl)pyrimidin-4-yl)pyrrolidine-2-carboxamide] | 100 to 999 | 100 to 999 |
| N#Cc1ccc(CCNC(=O)[C@@H]2CCCN2c2cc(-c3cccs3)nc(C(F)(F)F)n2)cc1 [Compound 165, (S)-N-(4-cyanophenthyl)-1-(6-(thiophene-2-yl)-2-(trifluoromethyl)pyrimidin-4-yl)pyrrolidine-2-carboxamide] | 100 to 999 | 100 to 999 |
| Cc1ccc(-c2cc(N3CCC[C@H]3C(=O)NCCc3ccc(C#N)cc3)nc(C(F)(F)F)n2)cc1 [Compound 143, (S)-N-(4-cyanophenethyl)-1-(6-(p-tolyl)-2-(trifluoromethyl)pyrimidin-4-yl)pyrrolidine-2-carboxamide] | 100 to 999 | 100 to 999 |
| Cc1ccc(-c2cc(N3CCC[C@H]3C(=O)NCCc3ccc(C#N)cc3)nc(C(F)(F)F)n2)o1 [Compound 166, (S)-N-(4-cyanophenethyl)-1-(6-(5-methylfuran-2-yl)-2-(trifluoromethyl)pyrimidin-4-yl)pyrrolidine-2-carboxamide] | 100 to 999 | 100 to 999 |
| COc1cc(-c2cc(N3CCC[C@H]3C(=O)NCCc3ccc(C#N)cc3)nc(C(F)(F)F)n2)ccn1 [Compound 160, (S)-N-(4-cyanophenethyl)-1-(6-(2-methoxypyridin-4-yl)-2-(trifluoromethyl)pyrimidin-4-yl)pyrrolidine-2-carboxamide] | < 100 | 1000 to 30000 |
| COc1ccc(-c2cc(N3CCC[C@H]3C(=O)NCCc3ccc(C#N)cc3)nc(C(F)(F)F)n2)cc1 [Compound 148, (S)-N-(4-cyanophenethyl)-1-(6-(4-methoxyphenyl)-2-(trifluoromethyl)pyrimidin-4-yl)pyrrolidine-2-carboxamide] | < 100 | 100 to 999 |
| N#Cc1ccc(CCNC(=O)[C@@H]2CCCN2c2cc(-c3ccc(C(F)(F)F)cc3)nc(C(F)(F)F)n2)cc1 [Compound 147, (S)-N-(4-cyanophenethyl)-1-(2-(trifluoromethyl)-6-(4-(trifluoromethyl)phenyl)pyrimidin-4-yl)pyrrolidine-2-carboxamide] | 100 to 999 | 100 to 999 |
| COc1ccc(-c2cc(N3CCC[C@H]3C(=O)NCCc3ccc(C#N)cc3)nc(C(F)(F)F)n2)cc1OC [Compound 149, (S)-N-(4-cyanophenethyl)-1-(6-(3,4-dimethoxyphenyl)-2-(trifluoromethyl)pyrimidin-4-yl)pyrrolidine-2-carboxamide] | 100 to 999 | 100 to 999 |
| N#Cc1ccc(CCNC(=O)[C@@H]2CCCN2c2cc(-c3ccncc3)nc(C(F)(F)F)n2)cc1 [Compound 141, (S)-N-(4-cyanophenethyl)-1-(6-(pyridin-4-yl)-2-(trifluoromethyl)pyrimidin-4-yl)pyrrolidine-2-carboxamide] | 100 to 999 | 100 to 999 |
| CC(C)(C)OC(=O)NC1CCN(c2cc(N3CCC[C@H]3C(=O)NCCc3ccc(C#N)cc3)nc(C(F)(F)F)n2)CC1 [Compound 16] | < 100 | 100 to 999 |
| N#Cc1ccc(CCNC(=O)[C@@H]2CCCN2c2cc(-c3csc(C(=O)O)c3)nc(C(F)(F)F)n2)cc1 [Compound 178, (S)-4-(6-(2-((4-cyanophenethyl)carbamoyl)pyrrolidin-1-yl)-2-(trifluoromethyl)pyrimidin-4-yl)thiophene-2-carboxylic acid] | < 100 | 1000 to 30000 |
| COc1cnccc1-c1cc(N2CCC[C@H]2C(=O)NCCc2ccc(C#N)cc2)nc(C(F)(F)F)n1 [Compound 159, (S)-N-(4-cyanophenethyl)-1-(6-(3-methoxypyridin-4-yl)-2-(trifluoromethyl)pyrimidin-4-yl)pyrrolidine-2-carboxamide] | < 100 | 1000 to 30000 |
| N#Cc1ccc(CCNC(=O)[C@@H]2CCCN2c2cc(-c3ccco3)nc(C(F)(F)F)n2)cc1 [Compound 167, (S)-N-(4-cyanophenethyl)-1-(6-(furan-2-yl)-2-(trifluoromethyl)pyrimidin-4-yl)pyrrolidine-2-carboxamide] | 100 to 999 | 1000 to 30000 |
| Nc1cc(N2CCC[C@@H](C(=O)NCCc3ccc(C(F)(F)F)cc3)C2)nc(C(F)(F)F)n1 [Compound 320, (R)-1-(6-amino-2-(trifluoromethyl)pyrimidin-4-yl)-N-(4-(trifluoromethyl)phenethyl)piperidine-3-carboxamide] | 100 to 999 | 100 to 999 |
| N#Cc1ccc(CCNC(=O)C2CCN2c2cc(-c3ccncc3)nc(C(F)(F)F)n2)cc1 (centres unmarked) [Compound 307, N-(4-cyanophenethyl)-1-(6-(pyridin-4-yl)-2-(trifluoromethyl)pyrimidin-4-yl)azetidine-2-carboxamide] | < 100 | 100 to 999 |
